PMC7221111 (Drugs in R&D, 2020)
“And” between values parts separate entries of the source, which are not always exact repeats. Identical values can stand only once. Like-named read-outs stand apart in the source and are kept apart here.

Key:
[1] = cited from earlier work
[2] = Population pharmacokinetic model of vancomycin in preterm neonates; details: 500 non-parametric bootstrap runs; typical individual 1.48 kg

CN[C@H](CC(C)C)C(=O)N[C@H]1C(=O)N[C@@H](CC(N)=O)C(=O)N[C@H]2C(=O)N[C@H]3C(=O)N[C@H](C(=O)N[C@H](C(=O)O)c4cc(O)cc(O)c4-c4cc3ccc4O)[C@H](O)c3ccc(c(Cl)c3)Oc3cc2cc(c3O[C@@H]2O[C@H](CO)[C@@H](O)[C@H](O)[C@H]2O[C@H]2C[C@](C)(N)[C@H](O)[C@H](C)O2)Oc2ccc(cc2Cl)[C@H]1O [vancomycin]
Clearance, range reported in a similar population of neonates [1]: 0.054 to 0.07 L/h
Vd, range reported in a similar population of neonates [1]: 0.58 to 1.19 L
Variation in Vd ([1]; neonatal populations): 32% and 29.4%
Variation in clearance ([1]; neonates): 32%
Variation in Vd ([1]; paediatric populations): 43% and 77%
CL, bootstrap median (95% CI) [2]: 0.1 (0.09–0.11) L/h
Vd, bootstrap median (95% CI) [2]: 0.86 (0.804–0.93) L
